Values of other authors in US8226980B2, “Orally disintegrating solid dosage forms comprising progestin and methods of making and using thereof” (Teva Women's Health, Inc., priority 2006, dated 2012).
Where two headings read alike, the source gives them in different places.

Details: for Dose roughly equivalent to 0.050 mg of levonorgestrel: in a contraceptive regimen

C#C[C@]1(O)C=C[C@H]2[C@@H]3CCC4=CC(=O)CC[C@@H]4[C@H]3CC[C@@]21CC [gestodene]
Dose roughly equivalent to 0.050 mg of levonorgestrel: about 0.035 mg

C#C[C@]1(O)CC[C@H]2[C@@H]3CCC4=CC(=O)CC[C@@H]4[C@H]3C(=C)C[C@@]21CC [3-ketodesogestrel]
Dose roughly equivalent to 0.050 mg of levonorgestrel: about 0.050 mg

C#C[C@]1(O)CC[C@H]2[C@@H]3CCC4=CCCC[C@@H]4[C@H]3C(=C)C[C@@]21CC [desogestrel]
Dose roughly equivalent to 0.050 mg of levonorgestrel: about 0.050 mg

C#C[C@]1(O)CCC2C3CCC4=CC(=O)CCC4C3CCC21CC (stereo partly drawn) [Levonorgestrel, 18,19-Dinorpregn-4-en-20-yn-3-one-13-ethyl-17-hydroxy-, (17α)-(−)-]
Norethindrone Equivalent* Dose (progestin Dose 0.10 mg): 0.35 mg
Norethindrone Equivalent* Dose (progestin Dose 0.15 mg): 0.52 mg

C#C[C@]1(O)CC[C@H]2[C@@H]3CCC4=C(CCC(=O)C4)[C@H]3CC[C@@]21C [Norethynodrel]
Norethindrone Equivalent* Dose (progestin Dose 2.50 mg): 2.50 mg
Norethindrone Equivalent* Dose (progestin Dose 5.00 mg): 5.00 mg
Norethindrone Equivalent* Dose (progestin Dose 9.85 mg): 9.85 mg

C#C[C@]1(OC(C)=O)CC[C@H]2[C@@H]3CCC4=C[C@@H](OC(C)=O)CC[C@@H]4[C@H]3CC[C@@]21C [Ethynodiol diacetate]
Norethindrone Equivalent* Dose (progestin Dose 1.00 mg): 1.00 mg

C#CC1(O)CC[C@H]2[C@@H]3CCC4=CC(=O)CC[C@@H]4[C@H]3CC[C@@]21CC (mixture of isomers) [dl-Norgestrel]
Dose roughly equivalent to 0.050 mg of levonorgestrel: about 0.100 mg
Norethindrone Equivalent* Dose (progestin Dose 0.30 mg): 0.45 mg
Norethindrone Equivalent* Dose (progestin Dose 0.50 mg): 0.75 mg

C#C[C@]1(O)CC[C@H]2[C@@H]3CCC4=CC(=O)CC[C@@H]4[C@H]3CC[C@@]21C [Norethindrone]
Norethindrone Equivalent* Dose (progestin Dose 1.00 mg): 1.00 mg
Norethindrone Equivalent* Dose (progestin Dose 2.00 mg): 2.00 mg
Norethindrone Equivalent* Dose (progestin Dose 10.00 mg): 10.00 mg

C#C[C@]1(OC(C)=O)CC[C@H]2[C@@H]3CCC4=CC(=O)CC[C@@H]4[C@H]3CC[C@@]21C [Norethindrone acetate]
Dose roughly equivalent to 0.050 mg of levonorgestrel: about 0.175 mg
Norethindrone Equivalent* Dose (progestin Dose 0.40 mg): 0.40 mg
Norethindrone Equivalent* Dose (progestin Dose 0.50 mg): 0.50 mg
Norethindrone Equivalent* Dose (progestin Dose 0.60 mg): 0.60 mg
Norethindrone Equivalent* Dose (progestin Dose 1.00 mg): 1.00 mg
Norethindrone Equivalent* Dose (progestin Dose 1.50 mg): 1.50 mg
Norethindrone Equivalent* Dose (progestin Dose 2.50 mg): 2.50 mg
